# From patent US6673345B2, “Anti-parasite astacin metalloendopeptidase antibodies” (Heska Corporation, priority 1994, dated 2004)
# “Also recorded” adds a separate entry of the source.
# Columns and labels:
# astacin = astacin (Astacus astacus, UniProt P07584); details: cited from earlier work
# D. immitis larvae (L3) = experiment: Effect of protease inhibitors on D. immitis larval molting in culture; assay type: cell-based, Dirofilaria immitis; details: for % reduction (of molt versus control): 72 hours; for % molt: L3 in NI medium, evaluated at 72 hours, control 82.6; for Observed movement and condition of treated larvae compared to controls: observed daily throughout the study; for Effect on ability of larvae to molt (in words): treatment of L3, ANOVA overall P=0.0001
# [1] = test system: ES proteins displaying metalloprotease activity (about 60 kD, about 95 kD, at least about 200 kD); details: 2 mM EDTA in reaction buffer, about 37° C., 66 hours
# Chain of astacin (P07584 50-249 limits assumed): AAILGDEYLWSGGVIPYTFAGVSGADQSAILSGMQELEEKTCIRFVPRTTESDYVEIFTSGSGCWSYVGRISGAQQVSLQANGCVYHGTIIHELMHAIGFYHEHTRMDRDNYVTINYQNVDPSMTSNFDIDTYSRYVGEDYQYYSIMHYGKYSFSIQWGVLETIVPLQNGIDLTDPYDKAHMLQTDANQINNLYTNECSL
Compound,Inhibition of astacin activity (astacin),% reduction (of molt versus control) (D. immitis larvae (L3); 1.0 mM inhibitor),% molt (D. immitis larvae (L3); 1.0 mM inhibitor),% reduction (of molt versus control) (D. immitis larvae (L3); 2.5 mM inhibitor),% molt (D. immitis larvae (L3); 2.5 mM inhibitor),% reduction (of molt versus control) (D. immitis larvae (L3); 5.0 mM inhibitor),% molt (D. immitis larvae (L3); 5.0 mM inhibitor),Observed movement and condition of treated larvae compared to controls (D. immitis larvae (L3)),Effect on ability of larvae to molt (in words) (D. immitis larvae (L3)),Inhibition of ES metalloprotease (collagenase) activity [1]
"c1cnc2c(c1)ccc1cccnc12 [1,10-phenanthroline]",inhibited,–,–,–,–,–,–,–,–,–
CC(C)C[C@H](NC(=O)[C@@H](O)[C@H](N)Cc1ccccc1)C(=O)O [Bestatin],–,27.3%,60.0%,57.9%,34.8%,94.1%,4.9%,moved much more slowly,significantly reduces the ability of the larvae to molt,–
"O=C(O)CN(CCN(CC(=O)O)CC(=O)O)CC(=O)O [EDTA, ethylene diamine tetraacetic acid]",inhibited,–,–,–,–,–,–,–,–,completely inhibited
CC(C)C[C@H](NP(=O)(O)O[C@@H]1O[C@@H](C)[C@H](O)[C@@H](O)[C@H]1O)C(=O)N[C@@H](Cc1c[nH]c2ccccc12)C(=O)O [Phosphoramidon],–,48.4%,42.6%,85.1%,12.3%,100.0%,0.0%,very active; also recorded: in poor shape by the end of the study,significantly reduces the ability of the larvae to molt,–
"TIMP1: Tissue inhibitor of metalloproteinases, protein inhibitor of zinc endopeptidases",do not demonstrate inhibitory activity,–,–,–,–,–,–,–,–,–
